The results in this text go back to publication PMC9501369, “Evaluation of Novel Inhibitors of Tryptophan Dioxygenases for Enzyme and Species Selectivity Using Engineered Tumour Cell Lines Expressing Either Murine or Human IDO1 or TDO2” (Pharmaceuticals, 2022).

For one data set, the target named is T1, murine IDO1 (Mus musculus, UniProt P28776).
T1 construct: expressed in transfected cells; host or cells: murine LLTC Lewis lung carcinoma cells
Description: LLTC-mIDO1 cell-based assay (kynurenine in supernatant). The text has this: (§1) Transfected LLTC cells constitutively expressing human IDO1 (LLTC-hIDO1) were established as previously described, by transfecting wild-type LLTC cells with pAd/CMV/V5-DEST with cDNA for human IDO1 (Invitrogen, Carlsbad, CA, USA). LLTC-mIDO1 cells that constitutive express murine IDO1 were established by transfection of wild-type LLTC with cDNA for murine IDO1 (courtesy of Dr Benoit van den Eynde). GL261 cells were similarly transfected to produce a line constitutively expressing human IDO1 (GL261-hIDO1), and a GL261-hTDO2 line expressing the human TDO2 gene (Source BioScience, Nottingham, England). Stable transfectants were maintained in αMEM with 10% FCS and selection antibiotics (2 µM puromycin for lines transfected with human dioxygenase genes, or 5 µg/mL blastocidin for LLTC-mIDO1 cells).
(§2) For the cell-based assays with engineered TDO2-expressing lines (10^4 cells per well), the α-MEM culture media was additionally supplemented with […] L-tryptophan. In brief, cells were cultured 24 h with the test compounds, and then supernatants from each well were transferred into fresh, flat-bottomed 96-well plates, mixed with trichloroacetic acid (10% final concentration) and incubated for 20 min, at 60 °C. Plates were centrifuged and supernatants transferred and mixed 1:1 with 4-(dimethylamino)benzaldehyde and the absorbance read at 480 nm as previously described. The inhibition of cellular enzyme activity at each drug concentration was calculated as a percent of control wells with no added drug.

Data set [1] addresses T2, human IDO1 (Homo sapiens, UniProt P14902). In words: LLTC-hIDO1 cell-based assay (kynurenine in supernatant). Further details: host or cells: murine LLTC Lewis lung carcinoma cells.
Source text: as §1, §2

The next data set has as its target T3, human TDO2 (Homo sapiens, UniProt P48775).
T3 construct: host or cells: murine GL261 glioma cells
In words: GL261-hTDO2 cell-based assay (kynurenine in supernatant). As to conditions: Table 2; for IC50 Ratio hTDO2/hIDO1: GL261-hTDO2 IC50 / LLTC-hIDO1 IC50, ^−1 marks inverse ratio; for IC50: GL261-hTDO2 cells. The procedure:
Each compound was tested in cell-based assays using LLTC-hIDO1 and GL261-hTDO2, respectively, for their potency at inhibiting human IDO1 and human TDO2.
as §1, §2

Data set [2] has as its target T2, human IDO1. In words: cell-free recombinant hIDO1 enzymatic assay. As to conditions: Figure 4, read-out: IC50 (enzyme assay). Type of data set: biochemical.
In data set [3] the test system is GL261-hIDO1 tumours. In words: K:T ratios in plasma and tumour of mice with GL261-hIDO1 tumours after single ip dose. The class given is in vivo, C57Bl/6 mice. As to conditions: single ip 150 mg/kg. On the procedure:
C57Bl/6 mice were inoculated subcutaneously with 10^6 GL261-WT or GL261-hIDO1 cells in […] PBS into the left flank. […] In brief, 100µL of each plasma sample was mixed with 100µL of potassium phosphate buffer (0.05 M, pH 6) containing 100µM of the internal standard, 3-Nitro-L-Tyrosine (Sigma-Aldred, St Louis, MO, USA). Twenty-five µL of 2 mol/L trichloroacetic acid (Merck) was added to precipitate the proteins, and the samples were then vortexed and centrifuged at 12,000× g for 6 min, at room temperature. Standard calibration curves made from serial dilution of tryptophan (Sigma) and L-kynurenine (Sigma) were prepared with the same treatment as the samples. All supernatants collected after centrifugation were transferred into micro sampling vials and analysed for kynurenine and tryptophan as previously described by HPLC (HP Agilent 1200, Agilent Technologies, Walbronn, Germany). Kynurenine and tryptophan concentrations in samples were calculated from the standard calibration curves and the kynurenine to tryptophan ratio (K:T) was calculated by dividing the concentration of kynurenine by the tryptophan concentration.

Data set [4] relates to GL261-hIDO1 tumours. Description: Growth of subcutaneous GL261-hIDO1 tumours under daily ip treatment. As to conditions: daily ip 75, 100 and 150 mg/kg, C57Bl/6 mice. Type of data set: in vivo.
Description: C57Bl/6 mice bred at the Vernon Jansen Unit, University of Auckland were used as the hosts for the growth of GL261 and LLTC tumours. Unless stated, first-generation tumours, initiated by injecting 10^6 cells in 100 µL medium subcutaneously into the left flank of each mouse were used for experiments. […] Tumours were measured thrice weekly, and tumour volumes were calculated as 0.52a^2b, where a and b are the minor and major axes of the tumour.
C57Bl/6 mice were inoculated subcutaneously into the left flank with 10^6 GL261-hIDO1 cells and were randomised into treatment groups 6 days after inoculation when the tumours were approximately 3 × 3 mm in size. Mice with tumours were treated daily with ip injection of the inhibitor at a tolerated non-toxic dose, dissolved to the required concentration in 50 µL DMSO per mouse. Control groups received only DMSO (≤50 µL).
Another data set is described as follows: in vivo. As to conditions: C57Bl/6, mouse, ip.
Where [5] appears, read: Table 1, LLTC-mIDO1 cells, 24 h culture with compound, read-out: IC50 (µM) LLTC-mIDO1.
Setting [6] is: Table 1, LLTC-hIDO1 cells, 24 h culture with compound, read-out: IC50 (µM) LLTC-hIDO1.
[7] abbreviates: mice with 16-day GL261-hIDO1 tumours.
[8] abbreviates: LLTC-hIDO1 cell assay vs recombinant hIDO1 enzymatic assay.
[9] abbreviates: Table 2, LLTC-hIDO1 cells, read-out: IC50 (µM) LLTC-hIDO1.

Read-outs that look alike come from different tables or passages of the source.

T1 sequence (P28776 whole entry): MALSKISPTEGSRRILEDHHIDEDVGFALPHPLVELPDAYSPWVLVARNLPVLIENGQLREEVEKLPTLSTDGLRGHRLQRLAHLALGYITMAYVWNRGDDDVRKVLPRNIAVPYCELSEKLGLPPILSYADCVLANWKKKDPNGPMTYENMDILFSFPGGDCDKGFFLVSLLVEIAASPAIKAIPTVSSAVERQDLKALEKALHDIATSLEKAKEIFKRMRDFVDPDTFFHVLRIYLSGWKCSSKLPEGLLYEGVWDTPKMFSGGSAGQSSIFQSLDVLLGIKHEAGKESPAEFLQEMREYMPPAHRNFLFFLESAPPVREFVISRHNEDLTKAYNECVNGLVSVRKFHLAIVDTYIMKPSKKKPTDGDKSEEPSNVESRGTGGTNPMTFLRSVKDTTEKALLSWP
T3 sequence (P48775 whole entry): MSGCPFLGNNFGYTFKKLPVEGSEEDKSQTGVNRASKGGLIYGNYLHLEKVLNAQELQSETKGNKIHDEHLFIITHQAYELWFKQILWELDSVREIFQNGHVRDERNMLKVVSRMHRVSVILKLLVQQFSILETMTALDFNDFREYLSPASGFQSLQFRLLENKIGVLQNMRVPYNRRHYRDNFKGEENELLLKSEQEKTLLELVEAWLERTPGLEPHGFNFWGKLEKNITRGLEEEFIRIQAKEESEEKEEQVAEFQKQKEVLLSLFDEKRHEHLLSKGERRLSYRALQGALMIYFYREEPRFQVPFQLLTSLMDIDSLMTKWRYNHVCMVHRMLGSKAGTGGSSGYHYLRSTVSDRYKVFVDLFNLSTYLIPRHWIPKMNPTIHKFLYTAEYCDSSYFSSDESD
T2 sequence (P14902 whole entry): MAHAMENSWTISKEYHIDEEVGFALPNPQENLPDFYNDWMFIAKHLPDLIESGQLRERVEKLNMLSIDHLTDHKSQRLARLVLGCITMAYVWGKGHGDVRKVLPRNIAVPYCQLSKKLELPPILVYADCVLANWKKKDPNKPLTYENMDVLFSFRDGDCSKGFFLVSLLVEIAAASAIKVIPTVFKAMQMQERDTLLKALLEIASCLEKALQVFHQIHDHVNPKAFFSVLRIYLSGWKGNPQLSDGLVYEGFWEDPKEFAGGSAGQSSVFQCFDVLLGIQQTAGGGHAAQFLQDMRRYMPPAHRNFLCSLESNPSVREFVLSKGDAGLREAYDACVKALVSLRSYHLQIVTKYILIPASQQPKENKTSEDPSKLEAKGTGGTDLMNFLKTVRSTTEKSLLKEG

The IC50 is the concentration that gives 50% inhibition. For the molecule `N#Cc1c(NC(=O)c2ccccc2)sc(N)c1-c1cccs1` [Compound W-0003891], the 50% inhibitory concentration (IC50) stood at 22.5 µM at murine IDO1 (setting [5]) and 2.56 µM on human IDO1 [1] (setting [6]).

Take `Cc1ccc(N/N=C2/CCCNC2=O)cc1` [Compound W-0011320]: the IC50 on murine IDO1 (setting [5]) was found to be 11.3 µM; on human IDO1 [1] (setting [6]), 17.9 µM.

With `O=C(O)c1coc2c1C(=NNc1ccccc1)CCC2` [Compound W-0011387], the IC50 on murine IDO1 (setting [5]) amounted to 1.32 µM; on human IDO1 [1] (setting [6]), 3.19 µM.

For the molecule `NC(=O)SCC(=O)Nc1ccc(F)cc1` [Compound W-0013201], the results for the IC50 at murine IDO1 (setting [5]) and on human IDO1 [1] (setting [6]) were 20 µM and 20.1 µM, respectively.

As for `Cc1nc2onc(N)c2c(C)c1Cl` [Compound W-0019482], the 50% inhibitory concentration (IC50) worked out at 0.01 µM on murine IDO1 (setting [5]); 15.2 µM on human TDO2; 1.85 µM on human IDO1 [2]; 0.0661 µM on human IDO1 [1] (Figure 4, LLTC-hIDO1 cell-based assay, read-out: IC50 (cell assay)); 0.08 µM on human IDO1 [1] (setting [6]); 0.09 µM on human IDO1 [1] (setting [9]). Further, the “IC50 Ratio hTDO2/hIDO1” value on human TDO2 is reported as 169. Besides, the “K:T ratio in the tumour, returned to % of that in mice without treatment” value in the data set with GL261-hIDO1 tumours [3] (GL261-hIDO1 tumours, time point not given) is listed as “approximately 50%”. Besides, the “K:T ratio in plasma” value in the data set with GL261-hIDO1 tumours [3] (setting [7]) is given as “reduced within an hour”. In addition, the “K:T ratio in tumour” value in the data set on GL261-hIDO1 tumours [3] (setting [7]) is “reduced within an hour”. The “growth of subcutaneous GL261-hIDO1 tumours” value in the data set on GL261-hIDO1 tumours [4] is given as “delayed the growth”. Further, in the data set “in vivo”, the MTD was found to be 150 mg/kg. At human IDO1 [1] (setting [8]), the “fold more potent in the cell-based assay compared to activity against the enzyme” value was 30 fold.

Take `c1ccc2c(c1)Nc1ccccc1O2` [Compound W-0020227]: the IC50 came to 3.1 µM against murine IDO1 and 1.52 µM at human IDO1 [1].

`CCn1cc(-c2c(N)sc(NC(=O)c3ccccc3)c2C#N)c(C)n1` [Compound W-0020339]: the IC50 on murine IDO1 (setting [5]) turned out to be 50.5 µM; at human IDO1 [1] (setting [6]), 11.6 µM.

`C/C(=N\Nc1ccc(F)cc1F)c1cccs1` [Compound W-0079326]: the half-inhibitory concentration (IC50) at murine IDO1 (setting [5]) was determined as 13.1 µM; on human IDO1 [1] (setting [6]), 10.1 µM.

Take `C/C(=N\Nc1ccc(C)c(Cl)c1)c1ccncc1` [Compound W-0079341]: the figures for the IC50 on murine IDO1 (setting [5]) and on human IDO1 [1] (setting [6]) were 10.3 µM and 17.1 µM, respectively.

With `C/C(=N\Nc1ccc(F)cc1F)c1cc2ccccc2o1` [Compound W-0079399], the 50% inhibitory concentration (IC50) stood at 25 µM on murine IDO1 (setting [5]) and 41.2 µM on human IDO1 [1] (setting [6]).

`C/C(=N\Nc1ccc(F)cc1F)c1ccc(N2CCOCC2)cc1` [Compound W-0079400]: the half-maximal inhibitory concentration (IC50) at murine IDO1 (setting [5]) was 12.9 µM; on human IDO1 [1] (setting [6]), 20.8 µM.

`CC(C)N1CCC(=NNc2ccc(Cl)c(Cl)c2)CC1` [Compound W-0079407]: the IC50 at murine IDO1 (setting [5]) worked out at 1.87 µM; at human IDO1 [1] (setting [6]), 3.39 µM.

`COc1cc(/C(C)=N/Nc2ccc(Cl)c(Cl)c2)cc(OC)c1OC` [Compound W-0079409]: the IC50 is 16 µM at murine IDO1 (setting [5]) and 6.74 µM on human IDO1 [1] (setting [6]).

With `CC1=C/C(=N\Nc2ccccc2Cl)CC1` [Compound W-0079433], the IC50 at murine IDO1 (setting [5]) came to 13.3 µM; on human IDO1 [1] (setting [6]), 5.33 µM.

With `Fc1ccc(N/N=C/c2sc(N3CCOCC3)nc2-c2ccccc2)cc1` [Compound W-0079497], the 50% inhibitory concentration (IC50) came to 3.03 µM on murine IDO1 (setting [5]) and 3.45 µM at human IDO1 [1] (setting [6]).

For `Cc1ccc(C)c(C2=Nn3c(COc4ccccc4F)nnc3SC2C)c1` (stereo not drawn) [Compound W-0080549], the IC50 on murine IDO1 (setting [5]) amounted to 70.7 µM; at human IDO1 [1] (setting [6]) it was 31.6 µM.

`Fc1ccc(N/N=C2/CCCc3ccccc32)c(F)c1` [Compound W-0125931]: the IC50 on murine IDO1 (setting [5]) came out at 5.83 µM; at human IDO1 [1] (setting [6]), 6.04 µM.

In the case of `Nc1nonc1/C(=N\O)Nc1ccc(F)c(Cl)c1` [INCB14934, reference compound], the half-inhibitory concentration (IC50) came to 0.12 µM against murine IDO1 and 6.08 µM against human TDO2. Besides, the “titration curve in the cell-assay compared to that in the enzymatic assay” value at human IDO1 [1] (setting [8]) is on record as “very similar”.

For `Nc1noc2ncc(Br)cc12` [SN36458], the IC50 was 0.08 µM against human TDO2 and 0.66 µM on human IDO1 [1] (setting [9]).

Turning to `Cc1nc2onc(N)c2c(C)c1Br` [SN36494], the “IC50 Ratio hTDO2/hIDO1” value on human TDO2 is 47. Also, the IC50 on human TDO2 came out at 14.1 µM; at human IDO1 [1] (setting [9]) it was 0.3 µM.

Take `Nc1noc2ncc(Cl)cc12` [SN36499]: the IC50 worked out at 0.11 µM against human TDO2 and 0.7 µM at human IDO1 [1] (setting [9]).

For `Nc1noc2nc3ccccc3cc12` [SN36500], the IC50 came out at 1.58 µM at human TDO2 and 2.11 µM at human IDO1 [1] (setting [9]).

On to `Nc1noc2ncncc12` [SN36704], for which the half-inhibitory concentration (IC50) against human TDO2 is 1.07 µM; on human IDO1 [1] (setting [9]) it was 8.67 µM.

Take `Nc1noc2nc(-c3ccccc3)ccc12` [SN36796]: at human TDO2, the “IC50 Ratio hTDO2/hIDO1” value came to 8 and 37 µM corresponded to half-maximal inhibition (IC50). Moreover, the half-inhibitory concentration (IC50) at human IDO1 [1] (setting [9]) is 4.38 µM.

Take `Nc1noc2ncc(I)cc12` [SN36896]: the values for the IC50 on human TDO2 and at human IDO1 [1] (setting [9]) were 0.11 µM and 0.64 µM, respectively.

For the molecule `COc1ccc2c(N)noc2n1` [SN37057], the “IC50 Ratio hTDO2/hIDO1” value on human TDO2 is on record as 1.2. The results for the IC50 against human TDO2 and on human IDO1 [1] (setting [9]) were 10.7 µM and 8.88 µM, respectively.

As for `Nc1noc2nc(C(F)(F)F)ccc12` [SN37159], on human TDO2, the “IC50 Ratio hTDO2/hIDO1” value is 1.6 and the concentration for half-maximal inhibition (IC50) came out at 1.81 µM. Also, the concentration for half-maximal inhibition (IC50) at human IDO1 [1] (setting [9]) was found to be 1.14 µM.

As for `Cc1cc(Cl)nc2onc(N)c12` [SN37313], on human TDO2, the “IC50 Ratio hTDO2/hIDO1” value worked out at 67. Further, the IC50 at human TDO2 was 4.14 µM; at human IDO1 [1] (setting [9]) it was 0.06 µM.

For `Nc1noc2ncc([N+](=O)[O-])cc12` [SN37318], the results for the IC50 at human TDO2 and on human IDO1 [1] (setting [9]) were 0.68 µM and 0.92 µM, respectively.

In the case of `Cc1nc2onc(NC(=O)Nc3ccccc3)c2c(C)c1Cl` [SN37705], on human TDO2, the “IC50 Ratio hTDO2/hIDO1” value was determined as 85 and the half-maximal inhibitory concentration (IC50) was 175 µM. Moreover, the IC50 on human IDO1 [1] (setting [9]) is 2.06 µM.
